Literature values, collected in patent US20130115264A1, “IMPLANTABLE RASAGILINE COMPOSITIONS AND METHODS OF TREATMENT THEREOF” (Endo Pharmaceuticals Solutions Inc., priority 2011, published 2013).
Where a name gives a salt, the structure may show the parent alone.

How the values were obtained:
[1] = oral dosage form
[2] = system: MAO-B; conditions: ex vivo, brain, liver and intestinal tissues
[3] = in vivo

Row | Compound | oral bioavailability [1] [%] | MAO-B inhibition [2] | half-life [3]
1 | C#CCN[C@@H]1CCc2ccccc21 [rasagiline mesylate] | ~35 | – | –
2 | C#CCN[C@@H]1CCc2ccccc21 [rasagiline, R-(+)-N-propargyl-1-aminoindan] | – | potent, irreversible MAO-B selective inhibitor | about 3 hours
